Where a name gives a salt, the structure may show the parent alone.
Key:
[1] = Dynamic Vapor Sorption (DVS) analysis of salts, with XRPD of the post-DVS sample; assay type: physicochemical; conditions: for sorption/desorption behaviour (reversibility, hysteresis): DVS isotherm; for deliquescence during DVS: high RH
Protocol: XRPD diffractograms were acquired using Bruker D2 Phaser diffractometer equipped with LYNXEYE detector. Samples were prepared using a zero-background sample holder. The samples were scanned from 5 to 32° (2θ) using a step size of 0.02° and a time per step of 0.13 second whilst spinning the sample. Diffractograms were plotted using the EVA program from Bruker.
DVS analyses were performed on TA Instrument DVS Q5000. Samples were added to a pre-tared metallised quartz crucible and run at 25° C. from 40% RH to 90% RH, down to zero and back to 40%. This cycle was repeated in increments of 10% RH.

[2] = Thermo-Gravimetric Analysis (TGA), thermal stability; assay type: physicochemical; conditions: 10° C./min ramp; for thermally stable up to (TGA): nitrogen
Protocol: TGA thermograms were obtained with a TA Instrument Discovery 550 in Al pans. The heating rate used was 10° C./min linear ramp from 25 to 400° C. with a nitrogen purging at a rate of 60 ml/min. TGA thermograms were analysed using TRIOS software.

[3] = Polymorphism screen of hydrochloride salt (thermal cycling, evaporations), XRPD; assay type: physicochemical; conditions: for XRPD Result: lyophilised hydrochloride salt, thermally cycled between ambient and 40° C., three days
Protocol: To render the material amorphous and thus remove seeds of the pattern 1 the material was rendered amorphous. To 2.605 g of the hydrochloride lot RPI-014-022 dioxane (55 ml) and water (5 ml) was added. The mixture was agitated gently and warmed to aid dissolution.
Twenty five of the lyophilised samples were treated with solvent and thermally cycled between ambient and 40° C. with four hours spent under each condition. After three days and solids were isolated by centrifuge filtration and analysed by XRPD.
Twelve samples of the lyophilised material were treated with a minimal volume (ca 0.5 ml) of warm solvent, syringe filtered through a 0.22 µm filter and added to a clean HPLC vial and allowed to evaporate at RT. The solvents used and XRPD results following evaporation are detailed in the Table below: […]

[4] = Solubility assessments in four different media; assay type: physicochemical; conditions: 250 mg per vial; for Observation: 1 ml media at 37° C.
Protocol: Solubility assessments of 5-MeO-DMT oxalate, hydrobromide fumarate and benzoate were performed in four different media: […]

[5] = assay type: physicochemical; conditions: 40° C./75% RH, three days
Protocol: Salt screening studies with 24 selected counter-ions were performed to determine if 5-MeO-DMT free base is amenable to salt formation. […] Salts were examined by XRPD, TGA, DSC, 1H NMR and some by DVS analyses. Short term physical stability was examined by storage of salts at 40° C./75% RH for three days.
Physical stability stress tests were conducted on generated crystalline salts at controlled temperature and relative humidity. The powder samples were stored at 40° C./75% RH for three days. After this time samples were analysed by XRPD to see whether the physical state of salts changed during the storage.

With `COc1ccc2[nH]cc(CCN(C)C)c2c1` [Benzenesulfonate salt, 5-MeO-DMT benzenesulfonate] the “total water (moisture) uptake between 0% RH and 90% RH” value ([1]; 25° C) was “approximately 21 % w/w”, the “sorption/desorption behaviour (reversibility, hysteresis)” value (“sorption/desorption behaviour” for short) ([1]; 25° C) was “hysteresis between 40-80% RH” and the “water uptake up to 60% RH” value ([1]; first sorption isotherm) was 1.2 % w/w. For the same compound, the “moisture absorption at 70% RH” value ([1]; first sorption isotherm) was 7 % w/w, the “moisture absorption at 80% RH” value ([1]; first sorption isotherm) was 14 % w/w and the “deliquescence during DVS” value [1] was “begins to deliquesce”. For the same compound, the “thermally stable up to (TGA)” value [2] was 250 °C.
In the case of `COc1ccc2[nH]cc(CCN(C)C)c2c1.Cl` [DJP2202-007-02], the “XRPD Result” value ([3]; 1-Propanol) is reported as “Pattern 1”.
In the case of `COc1ccc2[nH]cc(CCN(C)C)c2c1.Cl` [DJP2202-007-03], the “XRPD Result” value ([3]; 2-Butanol) is reported as “Pattern 1”.
In the case of `COc1ccc2[nH]cc(CCN(C)C)c2c1.Cl` [DJP2202-007-05], the “XRPD Result” value ([3]; 2-Methyltetrahydrofuran) is reported as “Pattern 1”.
With `COc1ccc2[nH]cc(CCN(C)C)c2c1.Cl` [DJP2202-007-06] the “XRPD Result” value ([3]; 2-Propanol) was “Pattern 1”.
In the case of `COc1ccc2[nH]cc(CCN(C)C)c2c1.Cl` [DJP2202-007-07], the “XRPD Result” value ([3]; Acetone) is reported as “Pattern 1”.
With `COc1ccc2[nH]cc(CCN(C)C)c2c1.Cl` [DJP2202-007-08] the “XRPD Result” value ([3]; Acetonitrile) was “Pattern 1”.
For `COc1ccc2[nH]cc(CCN(C)C)c2c1.Cl` [DJP2202-007-09], the “XRPD Result” value ([3]; Anisole) was “Pattern 1”.
For `COc1ccc2[nH]cc(CCN(C)C)c2c1.Cl` [DJP2202-007-10], the “XRPD Result” value ([3]; Chlorobenzene) was “Pattern 1”.
For `COc1ccc2[nH]cc(CCN(C)C)c2c1.Cl` [DJP2202-007-11], the “XRPD Result” value ([3]; Ethanol) was “Pattern 1”.
In the case of `COc1ccc2[nH]cc(CCN(C)C)c2c1.Cl` [DJP2202-007-12], the “XRPD Result” value ([3]; Ethyl acetate) is reported as “Pattern 1”.
In the case of `COc1ccc2[nH]cc(CCN(C)C)c2c1.Cl` [DJP2202-007-13], the “XRPD Result” value ([3]; Isopropyl acetate (experiment 007-13)) is reported as “Pattern 1”.
For `COc1ccc2[nH]cc(CCN(C)C)c2c1.Cl` [DJP2202-007-15], the “XRPD Result” value ([3]; Propyl acetate) was “Pattern 1”.
With `COc1ccc2[nH]cc(CCN(C)C)c2c1.Cl` [DJP2202-007-16] the “XRPD Result” value ([3]; Methylethyl ketone) was “Pattern 2”.
In the case of `COc1ccc2[nH]cc(CCN(C)C)c2c1.Cl` [DJP2202-007-20], the “XRPD Result” value ([3]; iso-Propyl acetate (experiment 007-20)) is reported as “Pattern 1”.
For `COc1ccc2[nH]cc(CCN(C)C)c2c1.Cl` [DJP2202-007-21], the “XRPD Result” value ([3]; 2-Me-1-PrOH) was “Pattern 1”.
In the case of `COc1ccc2[nH]cc(CCN(C)C)c2c1.Cl` [DJP2202-007-22], the “XRPD Result” value ([3]; Tetrahydrofuran) is reported as “Pattern 1”.
With `COc1ccc2[nH]cc(CCN(C)C)c2c1` [Fumarate salt, 5-MeO-DMT fumarate] the “mass difference between 40% RH and 0% RH” value ([1]; salt produced during scale-up) was ~ 2.84%, the “solid form after DVS (XRPD post DVS)” value ([1]; salt produced during scale-up) was “a change in crystalline form occurred” and the “pH after addition of 1 ml media at 37° C.” value (from here on “pH after addition”) ([4]; SNF) was 5.14. The Observation ([4]; SNF) was “Clear solution”, the “pH after addition” value ([4]; pH 1.2 buffer) was 5.24 and the Observation ([4]; pH 1.2 buffer) was “Clear solution”. The “pH after addition” value ([4]; pH 4.5 buffer) was 5.31, the Observation ([4]; pH 4.5 buffer) was “Clear solution” and the “pH after addition” value ([4]; pH 6.8 buffer) was 5.79. The Observation ([4]; pH 6.8 buffer) was “Clear solution” and the “thermally stable up to (TGA)” value [2] was 150 °C.
With `COc1ccc2[nH]cc(CCN(C)C)c2c1.Cl` [Hydrochloride pattern 2, 5-MeO-DMT hydrochloride] the “onset of decomposition / mass loss (TGA)” value ([2]; hydrochloride) was “around 256 °C”.
In the case of `COc1ccc2[nH]cc(CCN(C)C)c2c1.Cl` [Hydrochloride pattern 3, 5-MeO-DMT hydrochloride], the “onset of decomposition / mass loss (TGA)” value ([2]; hydrochloride) is reported as “around 260 °C”.
For `COc1ccc2[nH]cc(CCN(C)C)c2c1` [Ketoglutarate salt, 5-MeO-DMT ketoglutarate], the “water uptake at 40% RH” value ([1]; first sorption isotherm, 40% RH) was 0.13 % w/w, the “moisture absorption at 80% RH” value ([1]; first sorption isotherm) was 2.55 % w/w and the “water uptake at 90% RH” value ([1]; first sorption isotherm, 90% RH) was 28.14 % w/w. For the same compound, the “deliquescence during DVS” value [1] was “deliquesce at high RH”.
In the case of `COc1ccc2[nH]cc(CCN(C)C)c2c1.O=C(O)CC(O)C(=O)O` [Malate salt, 5-MeO-DMT malate], the “crystalline form by XRPD after storage” value [5] is reported as “conversion to a “gum” material” and the “thermally stable up to (TGA)” value [2] is reported as “around 170 °C”.
With `COc1ccc2[nH]cc(CCN(C)C)c2c1` [Phosphate salt, 5-MeO-DMT phosphate] the “total reversible mass change between 0-90% RH” value ([1]; Example 3 Pattern 1 batches, listed as 5-MeO-DMT Phosphate Pattern 1) was 0.3 wt. % and the “crystalline form by XRPD after storage” value [5] was “did not undergo any transformation”.
For `COc1ccc2[nH]cc(CCN(C)C)c2c1` [Saccharinate salt, 5-MeO-DMT saccharinate], the “thermally stable up to (TGA)” value [2] was 200 °C.
In the case of `COc1ccc2[nH]cc(CCN(C)C)c2c1` [Tosylate salt, 5-MeO-DMT tosylate], the “total water (moisture) uptake between 0% RH and 90% RH” value ([1]; 25° C) is reported as “approximately 1.9 % w/w”, the “sorption/desorption behaviour” value ([1]; 25° C) is reported as “reversibly without hysteresis” and the hygroscopicity classification ([1]; salt screen / scale-up batches, DVS at 25° C) is reported as “slightly hygroscopic (Pharmaceuticals that pick up between 0.2% and 2.0% moisture at 80% RH are considered slightly hygroscopic)”. The “solid form after DVS (XRPD post DVS)” value ([1]; salt screen batches) was “did not undergo any solid-state changes” and the “crystalline form by XRPD after storage” value [5] was “identical XRPD pattern”.
For `COc1ccc2[nH]cc(CCN(C)C)c2c1.O=C(O)c1ccccc1` [benzoate salt pattern 2, 5-MeO-DMT benzoate], the “thermally stable up to (TGA)” value [2] was ~ 170 °C.
In the case of `COc1ccc2[nH]cc(CCN(C)C)c2c1.O=C(O)c1ccccc1` [benzoate salt pattern 3, 5-MeO-DMT benzoate], the “onset of decomposition / mass loss (TGA)” value [2] is reported as “approximately 190 °C”.
With `COc1ccc2[nH]cc(CCN(C)C)c2c1.O=C(O)c1ccccc1` [benzoate salt pattern 4, 5-MeO-DMT benzoate] the “onset of decomposition / mass loss (TGA)” value [2] was ~ 190 °C and the “thermally stable up to (TGA)” value [2] was ~ 190 °C.
With `COc1ccc2[nH]cc(CCN(C)C)c2c1` [free base, 5-methoxy-N,N-dimethyltryptamine] the “thermally stable up to (TGA)” value [2] was 150 °C.
With `COc1ccc2[nH]cc(CCN(C)C)c2c1` [glycolate salt, 5-MeO-DMT glycolate] the “total moisture uptake between 0% RH and 90% RH, 1st cycle” value ([1]; 25° C, 1st cycle) was “approximately 62 % w/w”, the “total moisture uptake between 0% RH and 90% RH, 2nd cycle” value ([1]; 25° C, 2nd cycle) was roughly 59 % w/w and the “sorption/desorption behaviour” value ([1]; 25° C) was “hysteresis between 40-80% RH”. The “water uptake up to 60% RH” value ([1]; first sorption isotherm) was 2.3 % w/w, the “moisture absorption at 70% RH” value ([1]; first sorption isotherm) was 11 % w/w and the “moisture absorption at 80% RH” value ([1]; first sorption isotherm) was 33 % w/w. For the same compound, the “deliquescence during DVS” value [1] was “begins to deliquesce” and the “thermally stable up to (TGA)” value [2] was “around 155 °C”.
With `COc1ccc2[nH]cc(CCN(C)C)c2c1.Cl` [hydrochloride salt, 5-MeO-DMT hydrochloride] the “thermally stable up to (TGA)” value [2] was ~ 235 °C, the “XRPD Results” value ([3]; evaporation at RT of lyophilised material from 1-PrOH, DJP2202-011-02) was “Pattern 1” and the “XRPD Results” value ([3]; evaporation at RT of lyophilised material from EtOH, DJP2202-011-05) was “Pattern 1”. For the same compound, the “XRPD Results” value ([3]; evaporation at RT of lyophilised material from IPA, DJP2202-011-06) was “Pattern 1”, the “XRPD Results” value ([3]; evaporation at RT of lyophilised material from MEK, DJP2202-011-11) was “Pattern 1” and the “XRPD Results” value ([3]; evaporation at RT of lyophilised material from MeCN, DJP2202-011-12) was “Oil”.
